Drawing on patent publication US8227422B2, “Peptides and compounds that bind to a receptor” (Glaxosmithkline LLC, priority 1996, dated 2012), this text covers IC50 and EC50 for 4 molecules.

In assay [1] the target is T1, TPO-R (Homo sapiens, UniProt P40238).
T1 construct: made in house
T1 sequence (P40238 26-491 limits assumed): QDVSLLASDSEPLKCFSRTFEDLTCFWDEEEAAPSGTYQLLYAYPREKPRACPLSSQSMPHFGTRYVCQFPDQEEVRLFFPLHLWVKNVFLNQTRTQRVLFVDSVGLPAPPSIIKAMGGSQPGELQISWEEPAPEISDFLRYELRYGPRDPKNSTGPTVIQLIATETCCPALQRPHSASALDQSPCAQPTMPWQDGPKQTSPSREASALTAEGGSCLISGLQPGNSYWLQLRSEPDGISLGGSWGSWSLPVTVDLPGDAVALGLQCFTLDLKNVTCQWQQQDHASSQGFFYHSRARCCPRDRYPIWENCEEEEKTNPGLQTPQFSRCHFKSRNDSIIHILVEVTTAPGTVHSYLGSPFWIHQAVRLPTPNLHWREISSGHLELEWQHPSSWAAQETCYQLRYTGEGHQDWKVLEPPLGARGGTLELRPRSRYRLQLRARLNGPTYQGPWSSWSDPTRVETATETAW
The experiment in a line: Competition binding assay (equilibrium binding ELISA, MBP-TPO156 tracer) on immobilized TPO-R. The settings on record: read-out: IC50. As for the experimental part:
A variety of methods can be used to evaluate IC50 values. For example, an equilibrium binding ELISA assay, using either MBP-TPO or lacI-peptide tracer, was used to determine whether the peptides inhibit the binding of TPO to the extracellular domain of the TPO receptor. Typically, the IC50 value were determined using the free peptide. The IC50 value can be determined using the free peptide, which optionally can be C-terminally amidated, or can be prepared as an ester or other carboxy amide.
Binding affinities of chemically synthesized peptides for TPO-R were measured in a competition binding assay. The wells of a microtiter plate were coated with 1 mg streptavidin, blocked with PBS/1% BSA, followed by 50 ng of biotinylated anti-receptor immobilizing antibody (Ab179). The wells were then treated with a 1:10 dilution of soluble TPO-R harvest. Various concentrations of peptide or peptide mimetic were mixed with a constant amount of a truncated form of TPO consisting of residues 1-156 fused to the C-terminus of maltose binding protein (MBP-TPO156). The peptide MBP-TPO156 mixtures were added to the TPO-R coated wells, incubated for 2 hours at 4° C. and then washed with PBS. The amount of MBP-TPO156 that was bound at equilibrium was measured by adding a rabbit anti-sera directed against MBP, followed by alkaline phosphatase conjugated goat anti-rabbit IgG. The amount of alkaline phosphatase in each well was then determined using standard methods.
The assay is conducted over a range of peptide concentrations and the results are graphed such that the y axis represents the amount of bound MBP-TPO156 and the x axis represents the concentration of peptide or peptide mimetic.
On the technique in general: ELISA stands for enzyme-linked immunosorbent assay.

In assay [2] the target is T2, TPO receptor (Homo sapiens, UniProt P40238).
T2 sequence (P40238 26-635): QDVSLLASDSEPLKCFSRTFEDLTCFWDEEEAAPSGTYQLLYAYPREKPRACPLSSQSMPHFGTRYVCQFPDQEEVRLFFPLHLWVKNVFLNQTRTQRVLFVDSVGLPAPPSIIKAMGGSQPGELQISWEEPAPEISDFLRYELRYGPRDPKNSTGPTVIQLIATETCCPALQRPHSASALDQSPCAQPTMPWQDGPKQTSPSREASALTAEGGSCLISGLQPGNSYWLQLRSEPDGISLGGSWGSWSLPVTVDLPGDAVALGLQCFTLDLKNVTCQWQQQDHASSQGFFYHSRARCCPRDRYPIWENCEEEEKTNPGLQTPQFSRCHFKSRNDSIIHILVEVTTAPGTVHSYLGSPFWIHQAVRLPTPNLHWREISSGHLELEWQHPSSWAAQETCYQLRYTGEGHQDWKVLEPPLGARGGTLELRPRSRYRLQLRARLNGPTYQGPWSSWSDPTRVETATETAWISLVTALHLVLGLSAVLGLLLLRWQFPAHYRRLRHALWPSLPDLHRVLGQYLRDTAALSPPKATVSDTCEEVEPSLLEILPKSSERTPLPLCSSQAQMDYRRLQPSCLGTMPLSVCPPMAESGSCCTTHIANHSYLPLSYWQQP
The experiment in a line: Microphysiometer assay: rate of acidification of extracellular medium on TPO receptor stimulation. The format is cell-based.
Experimental: In this example cyclized compounds were subjected to three assays. […] Finally, a microphysiometer (Molecular Devices Corp.) assay was performed. […] The ranges for EC50 are symbolically indicated as for IC50 described above.

Assay [3] deals with T3, human TPO-R (transfected Ba/F3 cells) (Homo sapiens, UniProt P40238).
T3 construct: Murine IL-3 dependent Ba/F3 cells were transfected with full length human TPO-R; expressed in transfected cells; host or cells: murine Ba/F3 cells
T3 sequence (P40238 26-635): T2 sequence (P40238 26-635)
The experiment in a line: Thrombopoietin dependent cell proliferation assay (MTT), TPO-R transfected Ba/F3 cells. The settings on record: Table 6; read-out: EC50 (nM) Cell Prolif. It is filed as cell-based.
Experimental: Bioactivity of the peptides can be measured using a thrombopoietin dependent cell proliferation assay. Murine IL-3 dependent Ba/F3 cells were transfected with full length human TPO-R. In the absence of IL-3 (WEHI-3 conditioned media), these cells are dependent on TPO for proliferation.
The cells were grown in complete RPMI-10 media, containing 10% WEHI-3 conditioned media, then washed twice in PBS, resuspended in media which lacked WEHI-3 conditioned media, and added to wells containing dilutions of peptide or TPO at 2×10^4 cells/well. The cells were incubated for 48 hours at 37° C. in a humidified 5% CO2 atmosphere and metabolic activity was assayed by the reduction of MTT to formazan, with absorbance at 570 nm measured on an ELISA plate reader.

Where [4] appears, read: Table 7, dimer compounds, read-out: EC50 (nM) Microonys.

SMILES strings stand for the structures. pIC50: −log10 of the molar value. Read-outs that look alike come from different tables or passages of the source. Where a SMILES comes first, the peptide text is derived from it.

As to `CC(C)C[C@H](NC(=O)[C@H](Cc1c[nH]c2ccccc12)NC(=O)[C@H](CCC(N)=O)NC(=O)[C@H](CCCNC(=N)N)NC(=O)[C@H](CC(C)C)NC(=O)[C@@H](NC(=O)[C@@H]1CCCN1C(=O)CNC(=O)[C@H](CCC(=O)O)NC(=O)[C@@H](N)CCCCN)[C@@H](C)O)C(=O)N[C@@H](C)C(=O)N[C@@H](C)C(=O)N[C@@H](CCCNC(=N)N)C(=O)N[C@@H](C)C(=O)NCCCC[C@H](NC(=O)CCNC(=O)[C@H](C)NC(=O)[C@H](CCCNC(=N)N)NC(=O)[C@H](C)NC(=O)[C@H](C)NC(=O)[C@H](CC(C)C)NC(=O)[C@H](Cc1c[nH]c2ccccc12)NC(=O)[C@H](CCC(N)=O)NC(=O)[C@H](CCCNC(=N)N)NC(=O)[C@H](CC(C)C)NC(=O)[C@@H](NC(=O)[C@@H]1CCCN1C(=O)CNC(=O)[C@H](CCC(=O)O)NC(=O)[C@@H](N)CCCCN)[C@@H](C)O)C(N)=O`, the pIC50 (in general, −log10 of the IC50, conventionally taken in molar units) in assay [1] (Table 7, dimer compounds) was no less than 6.30. Further, the EC50 – broadly, the concentration at which the effect is half-maximal – in assay [2] (setting [4]) is less than 500 nM.

Turning to `CC[C@H](C)[C@H](NC(=O)[C@@H](N)CSSC[C@H](N)C(=O)N[C@H](C(=O)N[C@@H](CCC(=O)O)C(=O)NCC(=O)N1CCC[C@H]1C(=O)N[C@H](C(=O)N[C@@H](CC(C)C)C(=O)N[C@@H](CCCNC(=N)N)C(=O)N[C@@H](CCC(N)=O)C(=O)N[C@@H](Cc1c[nH]c2ccccc12)C(=O)N[C@@H](CC(C)C)C(=O)N[C@@H](C)C(=O)N[C@@H](C)C(=O)N[C@@H](CCCNC(=N)N)C(=O)N[C@@H](C)C(N)=O)[C@@H](C)O)[C@@H](C)CC)C(=O)N[C@@H](CCC(=O)O)C(=O)NCC(=O)N1CCC[C@H]1C(=O)N[C@H](C(=O)N[C@@H](CC(C)C)C(=O)N[C@@H](CCCNC(=N)N)C(=O)N[C@@H](CCC(N)=O)C(=O)N[C@@H](Cc1c[nH]c2ccccc12)C(=O)N[C@@H](CC(C)C)C(=O)N[C@@H](C)C(=O)N[C@@H](C)C(=O)N[C@@H](CCCNC(=N)N)C(=O)N[C@@H](C)C(N)=O)[C@@H](C)O` (HELM PEPTIDE1{C.I.E.G.P.T.L.R.Q.W.L.A.A.R.A.[am]}|PEPTIDE2{C.I.E.G.P.T.L.R.Q.W.L.A.A.R.A.[am]}$PEPTIDE1,PEPTIDE2,1:R3-1:R3$$$V2.0), in assay [1] (Table 7, dimer compounds), the pIC50 was no less than 6.30. The EC50 in assay [2] (setting [4]) was less than 500 nM.

On to `CC[C@H](C)[C@@H]1NC(=O)[C@H](Cc2c[nH]c3ccccc23)NC(=O)[C@H](CCC(=O)O)NC(=O)[C@H](CCCNC(=N)N)NC(=O)[C@H](CC(C)C)NC(=O)[C@H]([C@@H](C)O)NC(=O)[C@@H]2CCCN2C(=O)[C@@H](N)CSSC[C@@H](C(N)=O)NC(=O)[C@H](Cc2ccccc2)NC(=O)[C@H](CO)NC1=O` [ADG-deletion] (HELM PEPTIDE1{C.P.T.L.R.E.W.I.S.F.C.[am]}$PEPTIDE1,PEPTIDE1,1:R3-11:R3$$$V2.0; N-terminus and C-terminus assumed), for which, in assay [1] (Table 5), the pIC50 is no less than 3.70. Moreover, the EC50 in assay [2] (Table 5, value in parentheses, read-out: EC50 (nM), microphysiometer results given in parentheses) is less than 200000 nM.

Consider `CC[C@H](C)[C@@H]1NC(=O)[C@H](Cc2c[nH]c3ccccc23)NC(=O)[C@H](CCC(=O)O)NC(=O)[C@H](CCCNC(=N)N)NC(=O)[C@H](CC(C)C)NC(=O)[C@H]([C@@H](C)O)NC(=O)[C@@H]2CCCN2C(=O)CNC(=O)[C@H](CC(=O)O)NC(=O)[C@H](C)NC(=O)CSC[C@@H](C(=O)O)NC(=O)[C@H](Cc2ccccc2)NC(=O)[C@H](CO)NC1=O` [free acid form] (HELM PEPTIDE1{[O=C(C[*:3])[*:2]].A.D.G.P.T.L.R.E.W.I.S.F.C}$PEPTIDE1,PEPTIDE1,1:R3-14:R3$$$V2.0), for which the EC50 in assay [3] was less than 500 nM; in assay [2] (Table 6, value in parentheses, read-out: EC50 (nM), microphysiometer results in parentheses), less than 200000 nM.
